Measured values from patent US20060128769A1, “Thiazoyl biphenyl amides” (priority 2002, published 2006).
Like-named read-outs stand apart in the source and are kept apart here.

Key:
[1] = logP determination by HPLC on a reversed-phase column (C 18), EEC Directive 79/831 Annex V.A8; assay type: physicochemical; conditions: reversed-phase HPLC column (C 18)
Description: The logP values given in the preparation examples and tables above are determined in accordance with EEC Directive 79/831 Annex V.A8 by HPLC (High Performance Liquid Chromatography) using a reversed-phase column (C 18). Temperature: 43° C. The determination is carried out in the acidic range at pH 2.3 using the mobile phases 0.1% aqueous phosphoric acid and acetonitrile; linear gradient from 10% acetonitrile to 90% acetonitrile. Calibration is carried out using unbranched alkan-2-ones (having 3 to 16 carbon atoms) with known logP values (determination of the logP values by the retention times using linear interpolation between two successive alkanones).

[2] = tested on: Sphaerotheca fuliginea; test: Sphaerotheca test (cucumber)/protective; assay type: in vivo; conditions: Podosphaera fuliginea, 168 h, protective, application rate 100 g/ha, evaluation 7 days after inoculation, read-out: % efficacy
Description: • Solvents: 24.5 parts by weight of acetone 24.5 parts by weight of dimethylacetamide • Emulsifier: 1 part by weight of alkylaryl polyglycol ether
(§1) To produce a suitable preparation of active compound, 1 part by weight of active compound is mixed with the stated amounts of solvents and emulsifier, and the concentrate is diluted with water to the desired concentration.
To test for protective activity, young plants are sprayed with the preparation of active compound at the stated application rate. After the spray coating has dried on, the plants are inoculated with an aqueous spore suspension of Sphaerotheca fuliginea. The plants are then placed in a greenhouse at about 23° C. and a relative atmospheric humidity of about 70%.
Evaluation is carried out 7 days after the inoculation. 0% means an efficacy which corresponds to that of the control, whereas an efficacy of 100% means that no infection is observed.

[3] = tested on: Venturia inaequalis; test: Venturia test (apple)/protective; assay type: in vivo; conditions: 240 h, protective, application rate 100 g/ha, evaluation 10 days after inoculation, read-out: % efficacy
Description: (§2) • Solvents: 24.5 parts by weight of acetone 24.5 parts by weight of dimethylacetamide • Emulsifier: 1.0 part by weight of alkylaryl polyglycol ether
as §1
To test for protective activity, young plants are sprayed with the preparation of active compound at the stated application rate. After the spray coating has dried on, the plants are inoculated with an aqueous conidia suspension of the apple scab pathogen Venturia inaequalis and then remain in an incubation cabin at about 20° C. and 100% relative atmospheric humidity for one day.
The plants are then placed in a greenhouse at about 21° C. and a relative atmospheric humidity of about 90%.
Evaluation is carried out 10 days after the inoculation. 0% means an efficacy which corresponds to that of the control, whereas an efficacy of 100% means that no infection is observed.

[4] = tested on: Botrytis cinerea; test: Botrytis test (bean)/protective; assay type: in vivo; conditions: 48 h, protective, application rate 500 g/ha, evaluation 2 days after inoculation, read-out: % efficacy
Description: as §2, §1
To test for protective activity, young plants are sprayed with the preparation of active compound at the stated application rate. After the spray coating has dried on, 2 small pieces of agar colonized by Botrytis cinerea are placed onto each leaf. The inoculated plants are placed in a dark chamber at about 20° C. and 100% relative atmospheric humidity.
2 days after the inoculation, the size of the infected areas on leaves is evaluated. 0% means an efficacy which corresponds to that of the control, whereas an efficacy of 100% means that no infection is observed.

[5] = tested on: Alternaria solani; test: Alternaria test (tomato)/protective; assay type: in vivo; conditions: 168 h, protective, application rate 750 g/ha, evaluation 7 days after inoculation, read-out: % efficacy
Description: • Solvent: 49 parts by weight of N,N-dimethylformaide • Emulsifier: 1 part by weight of alkylaryl polyglycol ether To produce a suitable preparation of active compound, 1 part by weight of active compound is mixed with the stated amounts of solvent and emulsifier, and the concentrate is diluted with water to the desired concentration. To test for protective activity, young tomato plants are sprayed with the preparation of active compound at the stated application rate. 1 day after the treatment, the plants are inoculated with an aqueous spore suspension of Alternaria solani and then remain at 100% relative humidity for 24 hours. The plants then remain at about 96% relative atmospheric humidity and a temperature of 20° C. Evaluation is carried out 7 days after the inoculation. 0% means an efficacy which corresponds to that of the control, whereas an efficacy of 100% means that no infection is observed.

[6] = pH 2.3, HPLC reversed-phase C 18, 43° C., 0.1% aqueous phosphoric acid/acetonitrile, read-out: logP (pH 2.3)
[7] = Table 1, acidic range pH 2.3, HPLC reversed-phase C 18, 43° C., read-out: logP

SMILES	chromatographic logP [1, 6]	Emax at 100 g/ha [2]	Emax at 100 g/ha [3]	Emax at 500 g/ha [4]	chromatographic logP [1, 7]	Emax at 750 g/ha [5]	melting point
CC(=O)N(C(=O)c1sc(C)nc1C(F)F)c1ccccc1-c1ccc(Br)cc1 [Example 1, N-acetyl-N-(4′-bromo-1,1′-biphenyl-2-yl)-4-(difluoromethyl)-2-methyl-1,3-thiazole-5-carboxamide]	3.61	100%	100%	98%			
Cc1nc(C(F)F)c(C(=O)N(C)c2ccccc2-c2ccc(Cl)cc2)s1 [Example 2]	3.34	95%					
Cc1nc(C(F)F)c(C(=O)N(C(=O)c2sc(C)nc2C(F)F)c2ccccc2-c2cc(Cl)cc(Cl)c2)s1 [Example 4]		100%	99%	94%	4.28	95%	
Cc1nc(C(F)F)c(C(=O)N(C)c2ccccc2-c2ccc(Br)cc2)s1 [Example 6]		100%			3.44		
Cc1nc(C(F)F)c(C(=O)Nc2ccccc2-c2ccc(Br)cc2)s1 [II-1, N-(4′-bromo-1,1′-biphenyl-2-yl)-2-methyl-4-(difluoromethyl)-1,3-thiazole-5-carboxamide]	3.34						151 °C
Cc1nc(C(F)F)c(C(=O)Nc2ccccc2-c2ccc(Cl)cc2)s1 [II-2, N-(4′-chloro-1,1′-biphenyl-2-yl)-2-methyl-4-(difluoromethyl)-1,3-thiazole-5-carboxamide]	3.26						144 °C
